Data: ChEMBL document CHEMBL5126566, “Comparison of three zinc binding groups for HDAC inhibitors - A potency, selectivity and enzymatic kinetics study” (Bioorg Med Chem Lett, 2022)
Active and inactive are the calls of the source. The rule behind the calls is not given here.

Key:
Histone deacetylase 1 [1] = biological target: T1, Histone deacetylase 1 (Homo sapiens, UniProt Q13547); experiment: Inhibition of HDAC1 (unknown origin)
Histone deacetylase 2 [2] = biological target: T2, Histone deacetylase 2 (Homo sapiens, UniProt Q92769); experiment: Inhibition of HDAC2 (unknown origin) preincubated for 5 mins
Histone deacetylase 2 [3] = biological target: T2, Histone deacetylase 2; experiment: Inhibition of HDAC2 (unknown origin)
Histone deacetylase 7 = biological target: T3, Histone deacetylase 7 (Homo sapiens, UniProt Q8WUI4); experiment: Inhibition of HDAC7 (unknown origin)
T3 sequence (Q8WUI4 whole entry): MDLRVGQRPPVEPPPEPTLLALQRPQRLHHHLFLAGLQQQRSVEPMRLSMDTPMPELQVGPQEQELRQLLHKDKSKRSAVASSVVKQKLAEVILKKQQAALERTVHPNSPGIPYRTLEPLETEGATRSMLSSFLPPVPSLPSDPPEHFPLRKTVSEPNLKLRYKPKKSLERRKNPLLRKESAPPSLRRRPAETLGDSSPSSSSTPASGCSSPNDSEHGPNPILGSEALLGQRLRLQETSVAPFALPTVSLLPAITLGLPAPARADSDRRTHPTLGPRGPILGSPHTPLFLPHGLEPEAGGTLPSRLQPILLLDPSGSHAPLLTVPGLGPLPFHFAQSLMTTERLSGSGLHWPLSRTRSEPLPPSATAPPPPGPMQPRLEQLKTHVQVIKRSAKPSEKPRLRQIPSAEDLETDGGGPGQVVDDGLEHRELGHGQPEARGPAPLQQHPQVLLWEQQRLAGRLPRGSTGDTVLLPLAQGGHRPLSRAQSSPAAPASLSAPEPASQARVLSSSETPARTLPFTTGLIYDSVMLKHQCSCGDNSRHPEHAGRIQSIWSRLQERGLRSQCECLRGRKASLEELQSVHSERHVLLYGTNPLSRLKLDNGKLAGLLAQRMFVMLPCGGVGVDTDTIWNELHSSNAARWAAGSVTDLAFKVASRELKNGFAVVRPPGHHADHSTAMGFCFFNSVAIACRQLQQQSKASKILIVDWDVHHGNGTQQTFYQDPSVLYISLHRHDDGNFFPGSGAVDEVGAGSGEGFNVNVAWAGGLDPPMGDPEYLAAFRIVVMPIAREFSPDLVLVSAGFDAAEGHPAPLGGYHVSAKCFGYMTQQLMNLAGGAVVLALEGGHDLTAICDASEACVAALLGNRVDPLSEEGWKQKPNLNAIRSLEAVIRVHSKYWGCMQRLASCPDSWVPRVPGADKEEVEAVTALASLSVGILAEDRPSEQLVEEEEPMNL

Histone deacetylase 3 [4] = biological target: T4, Histone deacetylase 3 (Homo sapiens, UniProt O15379); experiment: Inhibition of HDAC3 (unknown origin) at 1 uM preincubated for 1 hr followed by 100-fold dilution and subsequent substrate addition measured after 1 hr; conditions: time 2.0 hrs
Histone deacetylase 9 = Histone deacetylase 9 (Homo sapiens, UniProt Q9UKV0); experiment: Inhibition of HDAC9 (unknown origin)
Histone deacetylase 2 [5] = biological target: T2, Histone deacetylase 2; experiment: Inhibition of HDAC2 (unknown origin) preincubated for 120 mins
Histone deacetylase 1 [6] = biological target: T1, Histone deacetylase 1; experiment: Inhibition of HDAC1 (unknown origin) preincubated for 120 mins
Histone deacetylase 2 [7] = biological target: T2, Histone deacetylase 2; experiment: Inhibition of HDAC2 (unknown origin) preincubated for 30 mins
Histone deacetylase 1 [8] = biological target: T1, Histone deacetylase 1; experiment: Mixed-type inhibition of HDAC1 (unknown origin) at 17.8 to 60 nM by Lineweaver-Burk plot analysis; conditions: dose 17.8-60 nM
Histone deacetylase 1 [9] = biological target: T1, Histone deacetylase 1; experiment: Inhibition of HDAC1 (unknown origin) at 1 uM preincubated for 1 hr followed by 100-fold dilution and subsequent substrate addition measured after 1 hr; conditions: time 2.0 hrs
Histone deacetylase 1 [10] = biological target: T1, Histone deacetylase 1; experiment: Inhibition of HDAC1 (unknown origin) preincubated for 90 mins
Histone deacetylase 3 [11] = biological target: T4, Histone deacetylase 3; experiment: Inhibition of HDAC3 (unknown origin) preincubated for 60 mins
Histone deacetylase 2 [12] = biological target: T2, Histone deacetylase 2; experiment: Inhibition of HDAC2 (unknown origin) preincubated for 60 mins
Histone deacetylase 1 [13] = biological target: T1, Histone deacetylase 1; experiment: Inhibition of HDAC1 (unknown origin) preincubated for 60 mins
Histone deacetylase 3 [14] = biological target: T4, Histone deacetylase 3; experiment: Inhibition of HDAC3 (unknown origin) preincubated for 30 mins
[15] = biological target: Histone deacetylase (Homo sapiens) (UniProt Q13547+O15379+Q9UBN7+Q92769+Q9UQL6+Q8WUI4+Q9BY41+Q96DB2+P56524+Q9UKV0+Q969S8); experiment: Inhibition of HDAC in human MV4-11 cells assessed as histone H3 acetylation preincubated for 3 hrs followed by compound washout and measured after 6 hrs by Western blot analysis; format: cell-based
Histone deacetylase 3 [16] = biological target: T4, Histone deacetylase 3; experiment: Inhibition of HDAC3 (unknown origin) preincubated for 5 mins
Histone deacetylase 3 [17] = biological target: T4, Histone deacetylase 3; experiment: Mixed-type inhibition of HDAC3 (unknown origin) at 17.8 to 60 nM by Lineweaver-Burk plot analysis; conditions: dose 17.8-60 nM
Histone deacetylase 1 [18] = biological target: T1, Histone deacetylase 1; experiment: Inhibition of HDAC1 (unknown origin) preincubated for 5 mins
MV4-11 = experiment: Antiproliferative activity against human MV4-11 cells; format: functional, cell-based
Histone deacetylase 2 [19] = biological target: T2, Histone deacetylase 2; experiment: Inhibition of HDAC2 (unknown origin) at 1 uM preincubated for 1 hr followed by 100-fold dilution and subsequent substrate addition measured after 1 hr; conditions: time 2.0 hrs
Histone deacetylase 2 [20] = biological target: T2, Histone deacetylase 2; experiment: Inhibition of HDAC2 (unknown origin) preincubated for 90 mins
Histone deacetylase 1 [21] = biological target: T1, Histone deacetylase 1; experiment: Inhibition of HDAC1 (unknown origin) preincubated for 30 mins
Histone deacetylase 8 = biological target: T5, Histone deacetylase 8 (Homo sapiens, UniProt Q9BY41); experiment: Inhibition of HDAC8 (unknown origin)
T5 sequence (Q9BY41 whole entry): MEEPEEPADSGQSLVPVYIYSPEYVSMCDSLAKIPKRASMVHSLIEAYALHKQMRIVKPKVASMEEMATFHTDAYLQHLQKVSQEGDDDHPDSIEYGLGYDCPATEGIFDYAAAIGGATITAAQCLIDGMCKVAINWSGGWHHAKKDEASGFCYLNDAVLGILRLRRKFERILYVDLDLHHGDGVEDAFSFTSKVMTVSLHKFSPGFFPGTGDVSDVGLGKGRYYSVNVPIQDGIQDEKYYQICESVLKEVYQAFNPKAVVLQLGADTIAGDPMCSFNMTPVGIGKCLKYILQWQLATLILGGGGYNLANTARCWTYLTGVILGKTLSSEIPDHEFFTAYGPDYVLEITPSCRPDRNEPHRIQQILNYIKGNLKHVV

Histone deacetylase 3 [22] = biological target: T4, Histone deacetylase 3; experiment: Inhibition of HDAC3 (unknown origin) preincubated for 90 mins
Histone deacetylase 4 = Histone deacetylase 4 (Homo sapiens, UniProt P56524); experiment: Inhibition of HDAC4 (unknown origin)
Histone deacetylase 3 [23] = biological target: T4, Histone deacetylase 3; experiment: Inhibition of HDAC3 (unknown origin)
Histone deacetylase 11 = biological target: T6, Histone deacetylase 11 (Homo sapiens, UniProt Q96DB2); experiment: Inhibition of HDAC11 (unknown origin)
T6 sequence (Q96DB2 whole entry): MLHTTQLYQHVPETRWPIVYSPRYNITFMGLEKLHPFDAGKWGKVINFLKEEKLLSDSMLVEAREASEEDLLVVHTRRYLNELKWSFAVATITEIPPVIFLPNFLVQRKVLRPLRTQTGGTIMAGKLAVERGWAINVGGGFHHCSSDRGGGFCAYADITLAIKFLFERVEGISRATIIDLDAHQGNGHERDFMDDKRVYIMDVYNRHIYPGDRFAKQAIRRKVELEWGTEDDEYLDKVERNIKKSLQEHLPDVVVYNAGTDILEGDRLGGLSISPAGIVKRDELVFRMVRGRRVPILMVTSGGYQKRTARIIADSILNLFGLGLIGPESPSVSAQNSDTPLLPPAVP

Histone deacetylase 5 = Histone deacetylase 5 (Homo sapiens, UniProt Q9UQL6); experiment: Inhibition of HDAC5 (unknown origin)
[24] = biological target: T7, Polyamine deacetylase HDAC10 (Homo sapiens, UniProt Q969S8); experiment: Inhibition of HDAC10 (unknown origin)
T7 sequence (Q969S8 whole entry): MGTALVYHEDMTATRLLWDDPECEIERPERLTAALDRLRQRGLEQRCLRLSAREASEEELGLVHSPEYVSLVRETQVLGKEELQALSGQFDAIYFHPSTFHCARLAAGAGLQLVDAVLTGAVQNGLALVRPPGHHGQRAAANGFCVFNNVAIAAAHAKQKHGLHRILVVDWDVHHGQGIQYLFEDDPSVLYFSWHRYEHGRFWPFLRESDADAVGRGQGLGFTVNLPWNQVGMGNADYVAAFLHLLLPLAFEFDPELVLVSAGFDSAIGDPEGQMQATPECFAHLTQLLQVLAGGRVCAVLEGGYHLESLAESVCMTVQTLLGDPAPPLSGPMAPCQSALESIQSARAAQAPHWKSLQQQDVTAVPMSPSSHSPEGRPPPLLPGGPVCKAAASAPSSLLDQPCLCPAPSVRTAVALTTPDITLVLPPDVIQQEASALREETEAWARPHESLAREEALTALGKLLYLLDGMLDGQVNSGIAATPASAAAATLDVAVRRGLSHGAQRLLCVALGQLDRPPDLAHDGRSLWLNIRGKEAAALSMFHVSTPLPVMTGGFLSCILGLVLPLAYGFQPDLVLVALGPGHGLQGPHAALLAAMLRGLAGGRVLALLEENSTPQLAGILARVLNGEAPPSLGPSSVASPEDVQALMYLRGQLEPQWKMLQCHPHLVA

[25] = biological target: T8, Protein deacetylase HDAC6 (Homo sapiens, UniProt Q9UBN7); experiment: Inhibition of HDAC6 (unknown origin)
T8 sequence (Q9UBN7 whole entry): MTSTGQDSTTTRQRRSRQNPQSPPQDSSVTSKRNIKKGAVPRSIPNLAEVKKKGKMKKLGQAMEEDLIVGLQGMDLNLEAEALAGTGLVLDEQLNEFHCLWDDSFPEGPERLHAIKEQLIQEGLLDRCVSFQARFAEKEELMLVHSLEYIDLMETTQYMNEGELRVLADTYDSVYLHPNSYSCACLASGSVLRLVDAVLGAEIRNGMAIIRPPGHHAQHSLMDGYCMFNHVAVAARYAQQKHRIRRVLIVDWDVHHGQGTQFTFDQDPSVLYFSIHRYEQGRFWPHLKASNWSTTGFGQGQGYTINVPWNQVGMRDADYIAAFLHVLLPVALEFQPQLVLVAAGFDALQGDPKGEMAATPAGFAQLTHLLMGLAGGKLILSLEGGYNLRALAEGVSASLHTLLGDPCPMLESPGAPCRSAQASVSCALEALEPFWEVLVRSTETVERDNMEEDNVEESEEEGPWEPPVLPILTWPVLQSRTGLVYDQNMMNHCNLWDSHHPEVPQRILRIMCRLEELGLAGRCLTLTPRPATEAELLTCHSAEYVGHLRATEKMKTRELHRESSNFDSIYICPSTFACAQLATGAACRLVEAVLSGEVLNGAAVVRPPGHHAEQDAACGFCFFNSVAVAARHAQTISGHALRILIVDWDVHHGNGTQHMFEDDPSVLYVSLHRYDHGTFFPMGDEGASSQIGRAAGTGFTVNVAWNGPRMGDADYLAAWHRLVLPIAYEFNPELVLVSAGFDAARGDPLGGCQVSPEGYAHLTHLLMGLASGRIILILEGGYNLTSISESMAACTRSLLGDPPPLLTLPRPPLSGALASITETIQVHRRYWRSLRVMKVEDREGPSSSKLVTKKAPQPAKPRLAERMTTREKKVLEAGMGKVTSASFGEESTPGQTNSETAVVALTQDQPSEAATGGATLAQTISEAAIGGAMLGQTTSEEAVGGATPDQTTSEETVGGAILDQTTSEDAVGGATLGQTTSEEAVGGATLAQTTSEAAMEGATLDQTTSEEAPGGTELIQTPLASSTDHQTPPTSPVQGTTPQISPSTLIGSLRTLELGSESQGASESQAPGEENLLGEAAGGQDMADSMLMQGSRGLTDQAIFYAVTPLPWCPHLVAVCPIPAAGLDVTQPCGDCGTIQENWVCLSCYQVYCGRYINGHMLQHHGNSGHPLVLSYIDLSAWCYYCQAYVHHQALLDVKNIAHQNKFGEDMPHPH

Histone deacetylase 3 [26] = biological target: T4, Histone deacetylase 3; experiment: Inhibition of HDAC3 (unknown origin) preincubated for 120 mins
Histone deacetylase 2 [27] = biological target: T2, Histone deacetylase 2; experiment: Mixed-type inhibition of HDAC2 (unknown origin) at 17.8 to 60 nM by Lineweaver-Burk plot analysis; conditions: dose 17.8-60 nM

T1 sequence (Q13547 whole entry): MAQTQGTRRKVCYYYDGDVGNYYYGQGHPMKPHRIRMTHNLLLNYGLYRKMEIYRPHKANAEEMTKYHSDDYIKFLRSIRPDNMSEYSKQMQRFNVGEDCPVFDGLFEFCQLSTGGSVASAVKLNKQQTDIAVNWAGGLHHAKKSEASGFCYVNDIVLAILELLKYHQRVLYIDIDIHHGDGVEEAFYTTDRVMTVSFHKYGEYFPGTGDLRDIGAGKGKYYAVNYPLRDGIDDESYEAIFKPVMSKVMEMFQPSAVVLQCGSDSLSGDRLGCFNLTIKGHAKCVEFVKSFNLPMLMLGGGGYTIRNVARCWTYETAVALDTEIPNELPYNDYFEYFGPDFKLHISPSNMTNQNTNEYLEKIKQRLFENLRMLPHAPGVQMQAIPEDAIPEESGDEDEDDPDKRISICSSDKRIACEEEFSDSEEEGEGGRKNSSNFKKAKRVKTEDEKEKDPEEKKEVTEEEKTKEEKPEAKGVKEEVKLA
T2 sequence (Q92769 whole entry): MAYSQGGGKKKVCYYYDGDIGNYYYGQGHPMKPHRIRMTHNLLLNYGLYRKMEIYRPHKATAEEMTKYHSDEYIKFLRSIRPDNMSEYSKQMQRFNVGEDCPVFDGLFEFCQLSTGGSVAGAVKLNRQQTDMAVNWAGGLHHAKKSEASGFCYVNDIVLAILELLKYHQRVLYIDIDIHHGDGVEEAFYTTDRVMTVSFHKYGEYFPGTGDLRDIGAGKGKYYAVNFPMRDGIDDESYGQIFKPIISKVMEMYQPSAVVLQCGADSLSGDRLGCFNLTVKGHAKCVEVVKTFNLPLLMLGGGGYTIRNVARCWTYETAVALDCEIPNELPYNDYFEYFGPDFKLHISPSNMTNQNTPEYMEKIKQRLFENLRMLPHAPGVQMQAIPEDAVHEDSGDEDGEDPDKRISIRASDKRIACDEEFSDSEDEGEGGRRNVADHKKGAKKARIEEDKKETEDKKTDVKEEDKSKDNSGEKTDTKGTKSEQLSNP
T4 sequence (O15379 whole entry): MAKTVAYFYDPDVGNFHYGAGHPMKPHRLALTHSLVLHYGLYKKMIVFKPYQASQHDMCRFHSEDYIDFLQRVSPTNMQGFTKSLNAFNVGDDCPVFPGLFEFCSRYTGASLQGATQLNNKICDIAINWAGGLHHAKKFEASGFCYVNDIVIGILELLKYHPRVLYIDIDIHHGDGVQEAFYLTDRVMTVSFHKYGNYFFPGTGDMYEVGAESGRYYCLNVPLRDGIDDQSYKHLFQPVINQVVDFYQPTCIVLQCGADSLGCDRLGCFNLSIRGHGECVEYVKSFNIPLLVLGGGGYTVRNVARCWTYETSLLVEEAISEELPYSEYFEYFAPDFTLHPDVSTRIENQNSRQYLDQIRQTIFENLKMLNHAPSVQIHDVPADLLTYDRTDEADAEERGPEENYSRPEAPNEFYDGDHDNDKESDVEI
Sequence of Histone deacetylase 4 (P56524 whole entry): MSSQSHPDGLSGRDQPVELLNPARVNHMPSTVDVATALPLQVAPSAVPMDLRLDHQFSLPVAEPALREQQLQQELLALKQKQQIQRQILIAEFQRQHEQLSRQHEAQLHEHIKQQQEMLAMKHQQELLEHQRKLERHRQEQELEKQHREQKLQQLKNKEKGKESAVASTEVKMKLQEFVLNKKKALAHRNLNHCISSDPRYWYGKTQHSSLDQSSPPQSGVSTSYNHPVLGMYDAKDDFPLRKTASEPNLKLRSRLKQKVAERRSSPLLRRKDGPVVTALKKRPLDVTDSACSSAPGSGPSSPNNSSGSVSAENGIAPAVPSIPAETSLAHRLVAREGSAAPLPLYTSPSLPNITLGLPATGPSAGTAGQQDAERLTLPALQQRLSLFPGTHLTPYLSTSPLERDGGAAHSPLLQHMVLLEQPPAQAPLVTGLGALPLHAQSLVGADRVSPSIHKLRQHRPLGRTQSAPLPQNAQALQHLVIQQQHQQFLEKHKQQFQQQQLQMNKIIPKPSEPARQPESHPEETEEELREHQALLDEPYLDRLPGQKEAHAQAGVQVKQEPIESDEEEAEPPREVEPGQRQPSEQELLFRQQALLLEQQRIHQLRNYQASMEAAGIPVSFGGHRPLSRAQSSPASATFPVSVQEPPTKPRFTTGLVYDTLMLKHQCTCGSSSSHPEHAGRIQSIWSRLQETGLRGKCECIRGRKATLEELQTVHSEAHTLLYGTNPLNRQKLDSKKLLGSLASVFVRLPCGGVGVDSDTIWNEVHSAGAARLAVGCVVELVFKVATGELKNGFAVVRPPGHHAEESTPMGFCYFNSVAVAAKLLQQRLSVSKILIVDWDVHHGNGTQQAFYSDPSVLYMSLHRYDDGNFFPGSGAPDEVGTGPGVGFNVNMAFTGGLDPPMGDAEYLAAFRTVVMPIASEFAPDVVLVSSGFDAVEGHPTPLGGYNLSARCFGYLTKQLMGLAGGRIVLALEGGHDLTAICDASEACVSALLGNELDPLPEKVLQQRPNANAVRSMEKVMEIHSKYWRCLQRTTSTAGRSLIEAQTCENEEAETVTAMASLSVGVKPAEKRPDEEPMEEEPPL
Sequence of Histone deacetylase 5 (Q9UQL6 whole entry): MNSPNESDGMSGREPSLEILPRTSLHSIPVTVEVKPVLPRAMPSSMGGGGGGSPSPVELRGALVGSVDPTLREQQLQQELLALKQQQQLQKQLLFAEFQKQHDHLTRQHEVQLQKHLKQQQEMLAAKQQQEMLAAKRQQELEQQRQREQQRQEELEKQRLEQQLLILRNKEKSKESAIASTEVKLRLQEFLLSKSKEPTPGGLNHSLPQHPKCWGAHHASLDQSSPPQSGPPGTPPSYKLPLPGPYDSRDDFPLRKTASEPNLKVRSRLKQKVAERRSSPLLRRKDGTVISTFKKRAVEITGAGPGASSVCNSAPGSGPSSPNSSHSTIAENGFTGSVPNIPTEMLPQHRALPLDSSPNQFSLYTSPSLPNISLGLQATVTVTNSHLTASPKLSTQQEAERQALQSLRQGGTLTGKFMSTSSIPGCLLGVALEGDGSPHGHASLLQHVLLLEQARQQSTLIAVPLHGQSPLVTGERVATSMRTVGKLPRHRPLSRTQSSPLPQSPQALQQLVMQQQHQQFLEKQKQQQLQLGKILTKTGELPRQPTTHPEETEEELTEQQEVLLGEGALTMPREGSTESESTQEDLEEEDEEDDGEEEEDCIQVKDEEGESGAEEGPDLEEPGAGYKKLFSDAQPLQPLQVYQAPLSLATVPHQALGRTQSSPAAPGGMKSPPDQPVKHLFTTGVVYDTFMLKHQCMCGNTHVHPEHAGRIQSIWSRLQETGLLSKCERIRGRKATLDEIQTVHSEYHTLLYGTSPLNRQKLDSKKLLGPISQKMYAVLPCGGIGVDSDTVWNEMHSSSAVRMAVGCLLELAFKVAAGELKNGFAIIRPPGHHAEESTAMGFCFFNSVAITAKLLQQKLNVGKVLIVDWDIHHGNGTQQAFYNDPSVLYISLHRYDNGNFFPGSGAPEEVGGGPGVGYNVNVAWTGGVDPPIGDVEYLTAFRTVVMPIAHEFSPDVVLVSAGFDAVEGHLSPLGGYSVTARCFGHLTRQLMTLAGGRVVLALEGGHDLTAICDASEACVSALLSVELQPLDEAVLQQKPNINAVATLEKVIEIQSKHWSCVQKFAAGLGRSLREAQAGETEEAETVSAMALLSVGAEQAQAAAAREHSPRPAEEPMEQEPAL
Sequence of Histone deacetylase 9 (Q9UKV0 whole entry): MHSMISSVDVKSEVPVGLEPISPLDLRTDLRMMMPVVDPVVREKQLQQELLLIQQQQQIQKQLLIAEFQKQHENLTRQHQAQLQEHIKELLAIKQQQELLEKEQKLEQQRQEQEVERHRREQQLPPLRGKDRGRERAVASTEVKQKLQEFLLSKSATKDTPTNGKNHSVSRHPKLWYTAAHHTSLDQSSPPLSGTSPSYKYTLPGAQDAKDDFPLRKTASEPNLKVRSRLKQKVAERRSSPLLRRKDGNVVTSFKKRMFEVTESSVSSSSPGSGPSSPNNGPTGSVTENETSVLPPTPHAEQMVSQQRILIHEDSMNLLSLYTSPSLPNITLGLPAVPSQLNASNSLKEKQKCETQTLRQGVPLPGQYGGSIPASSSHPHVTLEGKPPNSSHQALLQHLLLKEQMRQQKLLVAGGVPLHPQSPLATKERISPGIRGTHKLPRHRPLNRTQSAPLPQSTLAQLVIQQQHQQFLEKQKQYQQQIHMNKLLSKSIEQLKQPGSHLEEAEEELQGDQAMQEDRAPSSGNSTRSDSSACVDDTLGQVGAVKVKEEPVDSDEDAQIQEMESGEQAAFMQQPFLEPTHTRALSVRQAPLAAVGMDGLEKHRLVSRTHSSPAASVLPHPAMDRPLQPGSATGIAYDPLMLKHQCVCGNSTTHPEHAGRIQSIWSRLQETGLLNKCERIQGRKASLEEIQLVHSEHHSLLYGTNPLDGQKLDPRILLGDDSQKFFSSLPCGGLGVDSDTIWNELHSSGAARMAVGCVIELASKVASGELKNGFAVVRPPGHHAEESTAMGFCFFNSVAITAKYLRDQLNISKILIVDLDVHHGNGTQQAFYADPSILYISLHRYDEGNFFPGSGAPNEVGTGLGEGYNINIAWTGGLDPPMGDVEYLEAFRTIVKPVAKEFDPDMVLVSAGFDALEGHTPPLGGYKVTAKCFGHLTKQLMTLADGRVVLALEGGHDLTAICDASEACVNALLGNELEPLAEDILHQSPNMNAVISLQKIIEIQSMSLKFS

- IC50 (Histone deacetylase 1 [1]): 45.2 nM
- IC50 (Histone deacetylase 2 [2]): 406 nM
- IC50 (Histone deacetylase 2 [3]): 125 nM
- IC50 (Histone deacetylase 7): > 10000 nM
- inhibition (Histone deacetylase 3 [4]): Active
- IC50 (Histone deacetylase 9): > 10000 nM
- IC50 (Histone deacetylase 2 [5]): 146 nM
- IC50 (Histone deacetylase 1 [6]): 48.4 nM
- IC50 (Histone deacetylase 2 [7]): 304 nM
- inhibition (Histone deacetylase 1 [8]): Active
- inhibition (Histone deacetylase 1 [9]): Active
- IC50 (Histone deacetylase 1 [10]): 41.8 nM
- IC50 (Histone deacetylase 3 [11]): 22.9 nM
- IC50 (Histone deacetylase 2 [12]): 214 nM
- IC50 (Histone deacetylase 1 [13]): 62.9 nM
- IC50 (Histone deacetylase 3 [14]): 30.1 nM
- inhibition [15]: Active
- IC50 (Histone deacetylase 3 [16]): 58.2 nM
- inhibition (Histone deacetylase 3 [17]): Active
- IC50 (Histone deacetylase 1 [18]): 176 nM
- IC50 (MV4-11): 587 nM
- inhibition (Histone deacetylase 2 [19]): Active
- IC50 (Histone deacetylase 2 [20]): 163 nM
- IC50 (Histone deacetylase 1 [21]): 89.2 nM
- IC50 (Histone deacetylase 8): > 10000 nM
- IC50 (Histone deacetylase 3 [22]): 17.2 nM
- IC50 (Histone deacetylase 4): > 10000 nM
- IC50 (Histone deacetylase 3 [23]): 20.3 nM
- IC50 (Histone deacetylase 11): > 10000 nM
- IC50 (Histone deacetylase 5): > 10000 nM
- IC50 [24]: > 10000 nM
- IC50 [25]: > 10000 nM
- IC50 (Histone deacetylase 3 [26]): 17.7 nM
- inhibition (Histone deacetylase 2 [27]): Active
SMILES: CCCNNC(=O)CCCCCCC(=O)Nc1ccccc1
